{"source": "paper PMC2806265", "about": "“Divergence of allosteric effects of rapacuronium on binding and function of muscarinic receptors” (BMC Pharmacology, 2009)", "key": {"[1]": {"target": "T1, M3 muscarinic receptor (Homo sapiens, UniProt P20309)", "T1 construct": "host or cells: CHO cells, stably transfected; membranes", "T1 sequence (P20309 whole entry)": "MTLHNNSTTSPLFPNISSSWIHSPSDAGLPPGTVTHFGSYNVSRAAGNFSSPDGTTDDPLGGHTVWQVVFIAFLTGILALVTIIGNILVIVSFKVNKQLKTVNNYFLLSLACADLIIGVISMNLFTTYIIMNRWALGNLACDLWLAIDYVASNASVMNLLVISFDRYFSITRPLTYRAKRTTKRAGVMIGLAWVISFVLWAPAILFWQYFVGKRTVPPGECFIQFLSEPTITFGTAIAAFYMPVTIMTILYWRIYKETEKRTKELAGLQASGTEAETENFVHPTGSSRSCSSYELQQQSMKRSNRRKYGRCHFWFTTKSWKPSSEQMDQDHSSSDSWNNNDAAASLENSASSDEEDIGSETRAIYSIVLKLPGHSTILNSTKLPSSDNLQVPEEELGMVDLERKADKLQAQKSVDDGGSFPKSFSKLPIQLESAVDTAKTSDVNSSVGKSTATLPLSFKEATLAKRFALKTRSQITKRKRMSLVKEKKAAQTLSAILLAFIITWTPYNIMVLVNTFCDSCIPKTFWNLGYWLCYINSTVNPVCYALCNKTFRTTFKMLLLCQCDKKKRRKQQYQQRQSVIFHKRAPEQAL", "assay": "Effect of rapacuronium on low-affinity ACh binding ([3H]NMS + GTPγS + ACh)", "source_text": "Data are expressed as percent of specific binding in the absence of rapacuronium. […] Data are means ± SE from 3 independent experiments performed in quadruplicates. Curves are fits of Eq. 3 (circles) and Eq. 4 (squares and triangles) to data prior to normalization."}, "[2]": {"target": "T2, M2 muscarinic receptor (Homo sapiens, UniProt P08172)", "T2 sequence (P08172 1-466)": "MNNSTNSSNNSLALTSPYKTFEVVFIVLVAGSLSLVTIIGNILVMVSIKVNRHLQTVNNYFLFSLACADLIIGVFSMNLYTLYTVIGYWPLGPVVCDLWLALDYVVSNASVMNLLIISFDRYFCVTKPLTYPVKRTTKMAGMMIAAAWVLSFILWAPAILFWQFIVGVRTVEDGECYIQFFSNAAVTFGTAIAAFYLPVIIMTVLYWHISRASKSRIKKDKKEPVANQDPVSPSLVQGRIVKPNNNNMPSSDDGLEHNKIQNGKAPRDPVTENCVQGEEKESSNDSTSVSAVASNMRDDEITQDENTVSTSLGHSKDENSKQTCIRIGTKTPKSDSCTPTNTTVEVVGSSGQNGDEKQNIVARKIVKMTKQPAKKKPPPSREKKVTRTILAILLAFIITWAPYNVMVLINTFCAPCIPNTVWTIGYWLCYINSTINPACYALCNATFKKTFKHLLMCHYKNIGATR", "assay": "[35S]GTPγS binding to membranes", "type": "biochemical", "parameters": "host or cells: CHO cells, stably transfected; membrane preparation", "conditions": "for EMAX of ACh on [^35S]GTPγS binding: fold of basal", "procedure": "(§3) For determination of [^35S]GTPγS binding to G-proteins in membranes a final concentration of 200 pM (M1, M3 and M5 receptors) or 500 pM (M2 and M4 receptors) of [^35S]GTPγS was used. Incubation medium was supplemented with 5 μM (M1, M3 and M5 receptors) or 50 μM (M2 and M4 receptors) GDP. […] Incubation with [^35S]GTPγS was carried out for 20 min and free ligand was removed by filtration as described above. Filtration and washing with ice-cold water lasted for 9 s (wash-aspirate button time)."}, "[3]": {"target": "T1, M3 muscarinic receptor", "type": "biochemical", "conditions": "CHO-M3 membranes", "source_text": "Time course of association(6) [drawing 6]\n(§1) y, radioligand binding at time x; kobs, observed rate of association; equilibrium binding Beq = Bottom + Span."}, "[4]": {"target": "T3, M5 muscarinic receptor (Homo sapiens, UniProt P08912)", "T3 sequence (P08912 1-532)": "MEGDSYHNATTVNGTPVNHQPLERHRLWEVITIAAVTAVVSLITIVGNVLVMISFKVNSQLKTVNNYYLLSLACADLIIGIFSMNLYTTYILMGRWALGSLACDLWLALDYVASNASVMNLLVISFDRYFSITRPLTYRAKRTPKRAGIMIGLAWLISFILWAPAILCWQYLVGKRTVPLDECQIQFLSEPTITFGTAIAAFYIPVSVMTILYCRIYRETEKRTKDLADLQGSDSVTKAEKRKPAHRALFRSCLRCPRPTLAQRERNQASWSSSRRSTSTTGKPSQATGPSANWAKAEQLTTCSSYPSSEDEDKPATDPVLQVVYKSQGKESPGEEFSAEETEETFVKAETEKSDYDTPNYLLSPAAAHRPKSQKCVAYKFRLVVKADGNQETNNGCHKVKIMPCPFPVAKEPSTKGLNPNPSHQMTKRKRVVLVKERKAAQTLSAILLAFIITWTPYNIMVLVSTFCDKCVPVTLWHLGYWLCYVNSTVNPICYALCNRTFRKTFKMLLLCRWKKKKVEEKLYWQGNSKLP", "assay": "[3H]ACh saturation binding", "parameters": "host or cells: CHO cells, stably transfected; membranes", "source_text": "(§2) BMAX, maximum binding capacity; KD, equilibrium dissociation constant."}, "[5]": {"target": "T4, M4 muscarinic receptor (Homo sapiens, UniProt P08173)", "T4 sequence (P08173 1-479)": "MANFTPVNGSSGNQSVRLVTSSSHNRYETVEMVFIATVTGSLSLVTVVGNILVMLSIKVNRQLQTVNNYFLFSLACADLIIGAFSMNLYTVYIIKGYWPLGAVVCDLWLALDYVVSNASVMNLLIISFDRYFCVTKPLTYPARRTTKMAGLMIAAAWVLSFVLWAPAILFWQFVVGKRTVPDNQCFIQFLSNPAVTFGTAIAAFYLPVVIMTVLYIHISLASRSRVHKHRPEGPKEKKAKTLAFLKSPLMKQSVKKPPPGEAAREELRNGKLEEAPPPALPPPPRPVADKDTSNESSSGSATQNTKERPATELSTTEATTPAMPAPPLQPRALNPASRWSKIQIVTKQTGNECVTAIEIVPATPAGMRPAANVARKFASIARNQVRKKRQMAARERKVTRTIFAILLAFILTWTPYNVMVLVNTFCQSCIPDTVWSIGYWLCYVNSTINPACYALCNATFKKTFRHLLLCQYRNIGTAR", "assay": "[3H]ACh saturation binding", "parameters": "host or cells: CHO cells, stably transfected; membranes", "source_text": "as §2"}, "[6]": {"test_system": "M1 to M5 muscarinic receptors", "assay": "[35S]GTPγS binding, statements over several subtypes", "conditions": "rapacuronium alone", "procedure": "as §3"}, "[7]": {"target": "T3, M5 muscarinic receptor", "assay": "[3H]NMS dissociation"}, "[8]": {"target": "T2, M2 muscarinic receptor", "assay": "[3H]ACh association and dissociation kinetics", "type": "binding", "parameters": "host or cells: CHO cells, stably transfected; membrane preparation", "conditions": "10 μM rapacuronium, 40 nM [^3H]ACh", "source_text": "as §1\ny, radioligand binding at time x normalized to binding at time 0; koff1 and koff2, dissociation rate constants; f2, fraction of binding site with dissociation rate constant koff2. When both Eq. 7a and 7b were fitted to data the better fit was chosen based on sum of squares F-test and runs test."}}, "note": "Marks after values point to notes of the source that are not given here."}
{"smiles": "C=CC[N+]1([C@H]2C[C@H]3[C@@H]4CC[C@H]5C[C@H](OC(C)=O)[C@@H](N6CCCCC6)C[C@]5(C)[C@H]4CC[C@]3(C)[C@H]2OC(=O)CC)CCCCC1", "note": "[rapacuronium]", "values": [{"measurement": "decrease in ACh low-affinity binding (cooperativity)", "setting": "[1]; M3", "result": 16, "unit": "fold"}, {"measurement": "pβ, cooperativity with ACh low affinity binding", "setting": "[1]; M3, negative value = negative cooperativity", "result": "-1.20 ± 0.07"}, {"measurement": "Kd", "setting": "[1]; read-out: pKA of rapacuronium (converted)", "result": 17, "unit": "µM"}, {"measurement": "EMAX of ACh on [^35S]GTPγS binding", "setting": "[2]; + 0.1 μM rapacuronium", "result": "3.10 ± 0.15"}, {"measurement": "EMAX of ACh on [^35S]GTPγS binding", "setting": "[2]; + 1 μM rapacuronium", "result": "2.93 ± 0.13"}, {"measurement": "EMAX of ACh on [^35S]GTPγS binding", "setting": "[2]; + 10 μM rapacuronium", "result": "2.46 ± 0.18"}, {"measurement": "EMAX of rapacuronium on [^35S]GTPγS binding", "setting": "[2]; rapacuronium alone, normalized to absence of rapacuronium", "result": "0.84 ± 0.06"}, {"measurement": "EC50", "setting": "[2]; rapacuronium alone, read-out: pEC50 of rapacuronium on [^35S]GTPγS binding (converted)", "result": 28.2, "unit": "µM"}, {"measurement": "effect on rate of [^35S]GTPγS binding", "setting": "[3]; 1 μM rapacuronium alone", "result": "slightly decreased"}, {"measurement": "increase in [^35S]GTPγS binding at 5 min incubation", "setting": "[3]; 10 μM ACh + 1 μM rapacuronium", "result": "~5", "unit": "fold"}, {"measurement": "observed rate (kobs) of [^35S]GTPγS binding", "setting": "[3]; 10 μM ACh + 1 μM rapacuronium", "result": "0.166 ± 0.013", "unit": "min⁻¹"}, {"measurement": "estimated [^35S]GTPγS equilibrium binding (Beq)", "setting": "[3]; 10 μM ACh with 1 μM rapacuronium", "result": "9,980 ± 120 cpm per well"}, {"measurement": "BMAX of [^3H]ACh", "setting": "[4]; + 10 μM rapacuronium", "result": "0.33 ± 0.03 fmol/μg of protein"}, {"measurement": "BMAX of [^3H]ACh", "setting": "[4]; + 100 μM rapacuronium", "result": "0.34 ± 0.06 fmol/μg of protein"}, {"measurement": "BMAX of [^3H]ACh", "setting": "[5]; + 10 μM rapacuronium", "result": "0.54 ± 0.05 fmol/μg of protein"}, {"measurement": "BMAX of [^3H]ACh", "setting": "[5]; + 100 μM rapacuronium", "result": "0.47 ± 0.04 fmol/μg of protein"}, {"measurement": "maximal lowering of [^35S]GTPγS binding", "setting": "[6]; even-numbered subtypes", "result": "~15", "unit": "%"}, {"measurement": "maximal lowering of [^35S]GTPγS binding", "setting": "[6]; odd-numbered subtypes", "result": "approximately 25%"}, {"measurement": "decrease in rate of [^3H]NMS dissociation", "setting": "[7]; 100 μM rapacuronium", "result": 40, "unit": "%"}, {"measurement": "koff1 of [^3H]NMS dissociation", "setting": "[7]; + 100 μM rapacuronium, monophasic", "result": "0.0078 ± 0.0004* min^-1"}, {"measurement": "time of peak of [^3H]ACh association", "setting": "[8]", "result": "around 90 seconds"}]}
